# Assays:
# healthy subjects = assay: Symptom Checklist-90 item (SCL-90); format: in vivo, human
# Description: In some embodiments, the Symptom Checklist-90 item (SCL-90) questionnaire is used to evaluate the safety and/or efficacy of psilocybin. The SCL-90 is a relatively brief self-report psychometric instrument designed to evaluate a broad range of psychological problems and symptoms of psychopathology. In some embodiments, the SCL-90 is used to assess somatization, obsessive-compulsive behaviors, interpersonal sensitivity, depression, anxiety, hostility, phobic anxiety, paranoid ideation, and psychoticism of a subject treated according to the methods of the disclosure. The 90 items in the questionnaire are scored on a 5-point Likert scale, indicating the rate of occurrence of the symptom during the time reference. In some embodiments, after treating according to the methods of the disclosure, a subject's SCL-90 score decreases by about 5% to about 100%, for example, by about 5%, about 10%, about 15%, about 20%, about 25%, about 30%, about 35%, about 40%, about 45%, about 50%, about 55%, about 60%, about 65%, about 70%, about 75%, about 80%, about 85%, about 90%, about 95%, or about 100%.
# The Neuroticism Extraversion Openness-Five Factor Inventory (NEO-FFI) and Symptom Checklist-90 Item (SCL-90) were administered. Details of the MMRM applied to the change from baseline scores for the NEO-FFI and SCL-90 are provided below in Table 28.
# female Wistar rats = assay: Binge eating model: chow, chocolate and total food intake; settings: across the whole study
smiles,measurement,setting,value
CN(C)CCc1c[nH]c2cccc(OP(=O)(O)O)c12 [psilocybin],"SCL-90 - somatisation change from baseline, difference Psilocybin 10 mg - Placebo",healthy subjects; Day 7,0.1
same,"SCL-90 - somatisation change from baseline, difference Psilocybin 25 mg - Placebo",healthy subjects; Day 7,0.1
same,"SCL-90 - somatisation change from baseline, difference Psilocybin (25 mg-10 mg)",healthy subjects; Day 7,−0.0
same,"SCL-90 anger hostility change from baseline, difference Psilocybin 10 mg - Placebo",healthy subjects; Day 7,−0.0
same,"SCL-90 anger hostility change from baseline, difference Psilocybin 25 mg - Placebo",healthy subjects; Day 7,−0.0
same,"SCL-90 anger hostility change from baseline, difference Psilocybin (25 mg-10 mg)",healthy subjects; Day 7,0.0
same,"SCL-90 anxiety change from baseline, difference Psilocybin 10 mg - Placebo",healthy subjects; Day 7,−0.0
same,"SCL-90 anxiety change from baseline, difference Psilocybin 25 mg - Placebo",healthy subjects; Day 7,0.0
same,"SCL-90 anxiety change from baseline, difference Psilocybin (25 mg-10 mg)",healthy subjects; Day 7,0.0
same,"SCL-90 depression change from baseline, difference Psilocybin 10 mg - Placebo",healthy subjects; Day 7,0.0
same,"SCL-90 depression change from baseline, difference Psilocybin 25 mg - Placebo",healthy subjects; Day 7,0.0
same,"SCL-90 depression change from baseline, difference Psilocybin (25 mg-10 mg)",healthy subjects; Day 7,−0.0
same,"SCL-90 interpersonal sensitivity change from baseline, difference Psilocybin 10 mg - Placebo",healthy subjects; Day 7,−0.0
same,"SCL-90 interpersonal sensitivity change from baseline, difference Psilocybin 25 mg - Placebo",healthy subjects; Day 7,0.0
same,"SCL-90 interpersonal sensitivity change from baseline, difference Psilocybin (25 mg-10 mg)",healthy subjects; Day 7,0.1
same,"SCL-90 obsessive compulsive change from baseline, difference Psilocybin 10 mg - Placebo",healthy subjects; Day 7,0.1
same,"SCL-90 obsessive compulsive change from baseline, difference Psilocybin 25 mg - Placebo",healthy subjects; Day 7,0.1
same,"SCL-90 obsessive compulsive change from baseline, difference Psilocybin (25 mg-10 mg)",healthy subjects; Day 7,−0.0
same,"SCL-90 paranoid ideation change from baseline, difference Psilocybin 10 mg - Placebo",healthy subjects; Day 7,0.0
same,"SCL-90 paranoid ideation change from baseline, difference Psilocybin 25 mg - Placebo",healthy subjects; Day 7,0.1
same,"SCL-90 paranoid ideation change from baseline, difference Psilocybin (25 mg-10 mg)",healthy subjects; Day 7,0.1
same,"SCL-90 phobic anxiety change from baseline, difference Psilocybin 10 mg - Placebo",healthy subjects; Day 7,−0.0
same,"SCL-90 phobic anxiety change from baseline, difference Psilocybin 25 mg - Placebo",healthy subjects; Day 7,0.0
same,"SCL-90 phobic anxiety change from baseline, difference Psilocybin (25 mg-10 mg)",healthy subjects; Day 7,0.0
same,"SCL-90 psychoticism change from baseline, difference Psilocybin 10 mg - Placebo",healthy subjects; Day 7,0.0
same,"SCL-90 psychoticism change from baseline, difference Psilocybin 25 mg - Placebo",healthy subjects; Day 7,0.0
same,"SCL-90 psychoticism change from baseline, difference Psilocybin (25 mg-10 mg)",healthy subjects; Day 7,0.0
same,"SCL-90 - somatisation change from baseline, difference Psilocybin 10 mg - Placebo",healthy subjects; Day 84,0.0
same,"SCL-90 - somatisation change from baseline, difference Psilocybin 25 mg - Placebo",healthy subjects; Day 84,0.0
same,"SCL-90 - somatisation change from baseline, difference Psilocybin (25 mg-10 mg)",healthy subjects; Day 84,0.0
same,"SCL-90 anger hostility change from baseline, difference Psilocybin 10 mg - Placebo",healthy subjects; Day 84,−0.0
same,"SCL-90 anger hostility change from baseline, difference Psilocybin 25 mg - Placebo",healthy subjects; Day 84,−0.0
same,"SCL-90 anger hostility change from baseline, difference Psilocybin (25 mg-10 mg)",healthy subjects; Day 84,−0.0
same,"SCL-90 anxiety change from baseline, difference Psilocybin 10 mg - Placebo",healthy subjects; Day 84,−0.1
same,"SCL-90 anxiety change from baseline, difference Psilocybin 25 mg - Placebo",healthy subjects; Day 84,−0.0
same,"SCL-90 anxiety change from baseline, difference Psilocybin (25 mg-10 mg)",healthy subjects; Day 84,0.0
same,"SCL-90 depression change from baseline, difference Psilocybin 10 mg - Placebo",healthy subjects; Day 84,0.0
same,"SCL-90 depression change from baseline, difference Psilocybin 25 mg - Placebo",healthy subjects; Day 84,0.0
same,"SCL-90 depression change from baseline, difference Psilocybin (25 mg-10 mg)",healthy subjects; Day 84,0.0
same,"SCL-90 interpersonal sensitivity change from baseline, difference Psilocybin 10 mg - Placebo",healthy subjects; Day 84,−0.1
same,"SCL-90 interpersonal sensitivity change from baseline, difference Psilocybin 25 mg - Placebo",healthy subjects; Day 84,−0.0
same,"SCL-90 interpersonal sensitivity change from baseline, difference Psilocybin (25 mg-10 mg)",healthy subjects; Day 84,0.0
same,"SCL-90 obsessive compulsive change from baseline, difference Psilocybin 10 mg - Placebo",healthy subjects; Day 84,0.1
same,"SCL-90 obsessive compulsive change from baseline, difference Psilocybin 25 mg - Placebo",healthy subjects; Day 84,0.0
same,"SCL-90 obsessive compulsive change from baseline, difference Psilocybin (25 mg-10 mg)",healthy subjects; Day 84,−0.1
same,"SCL-90 paranoid ideation change from baseline, difference Psilocybin 10 mg - Placebo",healthy subjects; Day 84,0.1
same,"SCL-90 paranoid ideation change from baseline, difference Psilocybin 25 mg - Placebo",healthy subjects; Day 84,0.1
same,"SCL-90 paranoid ideation change from baseline, difference Psilocybin (25 mg-10 mg)",healthy subjects; Day 84,0.0
same,"SCL-90 phobic anxiety change from baseline, difference Psilocybin 10 mg - Placebo",healthy subjects; Day 84,−0.0
same,"SCL-90 phobic anxiety change from baseline, difference Psilocybin 25 mg - Placebo",healthy subjects; Day 84,0.0
same,"SCL-90 phobic anxiety change from baseline, difference Psilocybin (25 mg-10 mg)",healthy subjects; Day 84,0.0
same,"SCL-90 psychoticism change from baseline, difference Psilocybin 10 mg - Placebo",healthy subjects; Day 84,−0.0
same,"SCL-90 psychoticism change from baseline, difference Psilocybin 25 mg - Placebo",healthy subjects; Day 84,−0.0
same,"SCL-90 psychoticism change from baseline, difference Psilocybin (25 mg-10 mg)",healthy subjects; Day 84,0.0
same,Food intake over the 24 hour period (normal feeding behaviour),female Wistar rats,not significantly altered
